From US20240238423A9, “TETRAHYDROISOQUINOLINE HETEROBIFUNCTIONAL BCL-XL DEGRADERS” (Treeline Biosciences, Inc., priority 2022, published 2024)
Read-outs that look alike come from different tables or passages of the source.

Target: T1, Human BCL-XL protein (N-terminal HiBiT tagged BCL-XL in HT1080 cells) (Homo sapiens, UniProt Q07817)
T1 construct: expressed in transfected cells; host or cells: HT-1080 (ATCC CCL-121), stably transduced with lentivirus pLV-UBC-N-HiBiT-BCL-XL-PGK-puro and selected with puromycin
Assay: HiBiT based degradation assay
Assay type: cell-based
Details: HT1080 cells expressing HiBiT-BCL-XL; for Ymin (24 h) / Ymin (6 h): BCL-XL degradation normalized with DMSO control; for DC50: BCL-XL degradation
Summary of the method: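 HT1080 cells stably transduced by lentivirus with N-terminally HiBiT-tagged human BCL-XL and kept under 1 μg/mL puromycin selection were seeded at three thousand cells per well in 40 μL RPMI 1640 into 384-well plates pre-spotted with compounds across a concentration range. Luminescence was read on a PHERAstar FSX, normalized to DMSO, and fitted with a four-parameter logistic model.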

T1 sequence (Q07817 whole entry): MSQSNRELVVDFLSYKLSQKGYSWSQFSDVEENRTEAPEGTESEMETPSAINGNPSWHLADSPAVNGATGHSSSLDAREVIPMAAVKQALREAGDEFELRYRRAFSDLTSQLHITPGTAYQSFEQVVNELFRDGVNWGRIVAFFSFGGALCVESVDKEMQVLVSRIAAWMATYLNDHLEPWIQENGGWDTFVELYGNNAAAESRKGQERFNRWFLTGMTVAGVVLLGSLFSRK

Row | SMILES | Ymin (24 h) | DC50 (24 h, read-out: EC50 (24 h)) [nM] | Ymin (6 h) | DC50 (6 h, read-out: EC50 (6 h)) [nM]
1 | Cc1c(O[C@H]2CC[C@H](CCC(=O)N3CCN(c4ccc5c(C6CCC(=O)NC6=O)nn(C)c5c4)CC3)CC2)cccc1-c1ccc(N2CCc3cccc(C(=O)Nc4nc5ccccc5s4)c3C2)nc1C(=O)O (stereo partly drawn) [Compound 138a, 6-(8-(benzo[d]thiazol-2-ylcarbamoyl)-3,4-dihydroisoquinolin-2(1H)-yl)-3-(3-(((1r,4r)-4-(3-(4-(3-(2,6-dioxopiperidin-3-yl)-1-methyl-1H-indazol-6-yl)piperazin-1-yl)-3-oxopropyl)cyclohexyl)oxy)-2-methylphenyl)picolinic acid] | B (50% ≤ Ymin < 70%) | < 100 | B (50% ≤ Ymin < 70%) | 1000 to 10000
2 | Cc1c(OCCC(F)(F)C2CCN(CC(=O)Nc3cccc4c(C5CCC(=O)NC5=O)nn(C)c34)CC2)cccc1-c1ccc(N2CCc3cccc(C(=O)Nc4nc5ccccc5s4)c3C2)nc1C(=O)O (stereo not drawn) [Compound 196, 6-(8-(benzo[d]thiazol-2-ylcarbamoyl)-3,4-dihydroisoquinolin-2(1H)-yl)-3-(3-(3-(1-(2-((3-(2,6-dioxopiperidin-3-yl)-1-methyl-1H-indazol-7-yl)amino)-2-oxoethyl)piperidin-4-yl)-3,3-difluoropropoxy)-2-methylphenyl)picolinic acid] | B (50% ≤ Ymin < 70%) | 100 to 1000 |  | 
3 | Cc1c(OCC[C@@H](C)C2CCN(CC(=O)Nc3cccc4c(C5CCC(=O)NC5=O)nn(C)c34)CC2)cccc1-c1ccc(N2CCc3cccc(C(=O)Nc4nc5ccccc5s4)c3C2)nc1C(=O)O (stereo partly drawn) [Compound 173b, 6-[8-(1,3-benzothiazol-2-ylcarbamoyl)-3,4-dihydro-1H-isoquinolin-2-yl]-3-[3-[(3R)-3-[1-[2-[[3-(2,6-dioxo-3-piperidyl)-1-methyl-indazol-7-yl]amino]-2-oxo-ethyl]-4-piperidyl]butoxy]-2-methyl-phenyl]pyridine-2-carboxylic acid] | B (50% ≤ Ymin < 70%) | 100 to 1000 |  | 
4 | Cc1c(Oc2cccc(CCCN3CCN(c4ccc5c(C6CCC(=O)NC6=O)nn(C)c5c4)CC3)c2)cccc1-c1ccc(N2CCc3cccc(C(=O)Nc4nc5ccccc5s4)c3C2)nc1C(=O)O (stereo not drawn) [Compound 195, 6-[8-(1,3-benzothiazol-2-ylcarbamoyl)-3,4-dihydro-1H-isoquinolin-2-yl]-3-[3-[3-[3-[4-[3-(2,6-dioxo-3-piperidyl)-1-methyl-indazol-6-yl]piperazin-1-yl]propyl]phenoxy]-2-methyl-phenyl]pyridine-2-carboxylic acid] | B (50% ≤ Ymin < 70%) | < 100 | C (Ymin ≥ 70%) | < 100
5 | Cc1c(OCCN2CCN(CC3CCN(c4ccc5c(C6CCC(=O)NC6=O)nn(C)c5c4)CC3)CC2)cccc1-c1ccc(N2CCc3cccc(C(=O)Nc4nc5ccccc5s4)c3C2)nc1C(=O)O (stereo not drawn) [Compound 198, 6-(8-(benzo[d]thiazol-2-ylcarbamoyl)-3,4-dihydroisoquinolin-2(1H)-yl)-3-(3-(2-(4-((1-(3-(2,6-dioxopiperidin-3-yl)-1-methyl-1H-indazol-6-yl)piperidin-4-yl)methyl)piperazin-1-yl)ethoxy)-2-methylphenyl)picolinic acid] | A (Ymin < 50%) | < 100 |  | 
6 | Cc1c(O[C@H](C)CCC2CCN(CC(=O)Nc3ccc4c(C5CCC(=O)NC5=O)nn(C)c4c3)CC2)cccc1-c1ccc(N2CCc3cccc(C(=O)Nc4nc5ccccc5s4)c3C2)nc1C(=O)O (stereo partly drawn) [Compound 162b, 6-[8-(1,3-benzothiazol-2-ylcarbamoyl)-3,4-dihydro-1H-isoquinolin-2-yl]-3-[3-[(1R)-3-[1-[2-[[3-(2,6-dioxo-3-piperidyl)-1-methyl-indazol-6-yl]amino]-2-oxo-ethyl]-4-piperidyl]-1-methyl-propoxy]-2-methyl-phenyl]pyridine-2-carboxylic acid] | B (50% ≤ Ymin < 70%) | < 100 | C (Ymin ≥ 70%) | 100 to 1000
7 | Cc1c(O[C@H]2CC[C@H](CCCCN3CCN(c4ccc5c(C6CCC(=O)NC6=O)nn(C)c5c4)CC3)CC2)cccc1-c1ccc(N2CCc3cccc(C(=O)Nc4nc5ccccc5s4)c3C2)nc1C(=O)O (stereo partly drawn) [Compound 161a, 6-(8-(benzo[d]thiazol-2-ylcarbamoyl)-3,4-dihydroisoquinolin-2(1H)-yl)-3-(3-(((1s,4r)-4-(4-(4-(3-(2,6-dioxopiperidin-3-yl)-1-methyl-1H-indazol-6-yl)piperazin-1-yl)butyl)cyclohexyl)oxy)-2-methylphenyl)picolinic acid] | A (Ymin < 50%) | < 100 |  | 

The remaining lines, values ahead:

Row | Ymin (24 h) | DC50 (24 h, read-out: EC50 (24 h)) [nM] | Ymin (6 h) | DC50 (6 h, read-out: EC50 (6 h)) [nM] | SMILES
8 | A (Ymin < 50%) | < 100 |  |  | Cc1cc(OCCC[C@H]2CCN(CC(=O)Nc3ccc4c(C5CCC(=O)NC5=O)nn(C)c4c3)[C@@H](C)C2)ccc1-c1ccc(N2CCc3cccc(C(=O)Nc4nc5ccccc5s4)c3C2)nc1C(=O)O (stereo partly drawn) [Compound 344a, 6-[8-(1,3-benzothiazol-2-ylcarbamoyl)-3,4-dihydro-1H-isoquinolin-2-yl]-3-[4-[3-[(2S,4S)-1-[2-[[3-(2,6-dioxo-3-piperidyl)-1-methyl-indazol-6-yl]amino]-2-oxo-ethyl]-2-methyl-4-piperidyl]propoxy]-2-methyl-phenyl]pyridine-2-carboxylic acid]
9 | A (Ymin < 50%) | < 100 |  |  | Cc1cc(OCC2CC3(CCN(CC(=O)Nc4ccc5c(C6CCC(=O)NC6=O)nn(C)c5c4)CC3)C2)ccc1-c1ccc(N2CCc3cccc(C(=O)Nc4nc5ccccc5s4)c3C2)nc1C(=O)O (stereo not drawn) [Compound 265, 6-(8-(benzo[d]thiazol-2-ylcarbamoyl)-3,4-dihydroisoquinolin-2(1H)-yl)-3-(4-((7-(2-((3-(2,6-dioxopiperidin-3-yl)-1-methyl-1H-indazol-6-yl)amino)-2-oxoethyl)-7-azaspiro[3.5]nonan-2-yl)methoxy)-2-methylphenyl)picolinic acid]
10 | A (Ymin < 50%) | < 100 |  |  | Cc1c(O[C@@H]2CCC3(CCN(CC(=O)Nc4ccc5c(C6CCC(=O)NC6=O)nn(C)c5c4)CC3)C2)cccc1-c1ccc(N2CCc3cccc(C(=O)Nc4nc5ccccc5s4)c3C2)nc1C(=O)O (single isomer, unassigned) [Compound 268b]
11 | A (Ymin < 50%) | < 100 |  |  | Cn1nc(C2CCC(=O)NC2=O)c2ccc(N3CCN(CCC[C@H]4CC[C@H](Oc5cccc(-c6ccc(N7CCc8cccc(C(=O)Nc9nc%10ccccc%10s9)c8C7)nc6C(=O)O)c5C(F)(F)F)CC4)CC3)cc21 (stereo partly drawn) [Compound 328a, 6-(8-(benzo[d]thiazol-2-ylcarbamoyl)-3,4-dihydroisoquinolin-2(1H)-yl)-3-(3-(((1s,4r)-4-(3-(4-(3-(2,6-dioxopiperidin-3-yl)-1-methyl-1H-indazol-6-yl)piperazin-1-yl)propyl)cyclohexyl)oxy)-2-(trifluoromethyl)phenyl)picolinic acid]
12 | A (Ymin < 50%) | < 100 |  |  | Cc1c(O[C@H]2CC[C@H](CCCCN3CC[C@@H](c4ccc5c(C6CCC(=O)NC6=O)nn(C)c5c4)C3)CC2)cccc1-c1ccc(N2CCc3cccc(C(=O)Nc4nc5ccccc5s4)c3C2)nc1C(=O)O (single isomer, unassigned) [Compound 332b]
